Source: patent publication US5859061A, “Bis-sulfonamides hydroxamic acids as MMP inhibitors” (Pharmacia & Upjohn Company, priority 1998, dated 1999)

Legend:
Assay type in all cases: biochemical
Conditions in all cases: in vitro, pH 7.5, room temperature, 15 min preincubation, substrate 1-3 hours
stromelysin = stromelysin (Homo sapiens, UniProt P08254); test: particle concentration fluorescence assay, inhibition of stromelysin
Procedure: (§1) Inhibitory activity is evaluated in one or more of the MMP enzymes (stromelysin, gelatinase, and collagenase) in vitro using particle concentration fluorescence assay. An inhibitor binds to MMP enzymes which prevents the degradation of a substrate by stromelysin, gelatinase, or collagenase. The substrate has attached to it a fluorescein and a biotin moiety. The intact substrate then binds to an avidin-coated particle via the biotin moiety. Once the particle is washed and dried, a fluorescent signal is generated since the fluorescent group is attached to the particle. Without an inhibitor present, the substrate is degraded by MMP enzymes and the fluorescein group is removed, therefore, no fluorescent signal can be detected. Testing compounds are dissolved in DMSO to the desired concentration, then the solutions are diluted to 1:5 with MMP buffer (50 mM Tris-HCl, pH 7.5; 150 mM NaCl; 0.02% NaN3). Serial two-fold dilutions of each compound are prepared. A concentrated, activated enzyme solution is transferred into each plate of the testing compounds, and the mixture is incubated at room temperature for 15 minutes. Thawed MMP substrate is then added into all plates, and the plates are incubated in the dark for 1-3 hours at room temperature. At this point, the substrate mixture is mixed with 0.1% avidin-coated polystyrene particles. After 15 minutes, the fluorescence values are measured following filtration and washing of the beads. Ki values are then calculated.

collagenase = test: particle concentration fluorescence assay, inhibition of collagenase
Procedure: as §1

gelatinase = test: particle concentration fluorescence assay, inhibition of gelatinase
Procedure: as §1

stromelysin, sequence (P08254 100-477): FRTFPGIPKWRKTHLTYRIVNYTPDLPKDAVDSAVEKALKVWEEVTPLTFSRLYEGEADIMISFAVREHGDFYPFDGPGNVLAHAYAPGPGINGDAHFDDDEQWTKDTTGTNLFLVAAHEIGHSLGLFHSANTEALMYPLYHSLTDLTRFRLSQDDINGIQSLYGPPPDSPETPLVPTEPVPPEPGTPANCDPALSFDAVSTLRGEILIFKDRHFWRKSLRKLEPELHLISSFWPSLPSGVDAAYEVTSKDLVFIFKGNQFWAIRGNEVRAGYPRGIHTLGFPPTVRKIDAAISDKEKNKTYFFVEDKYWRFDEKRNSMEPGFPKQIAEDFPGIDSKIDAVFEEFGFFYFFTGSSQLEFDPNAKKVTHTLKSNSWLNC

Row | Structure (SMILES) | Ki (stromelysin) [nM] | Ki (collagenase) [nM] | Ki (gelatinase) [nM]
1 | Cc1ccc(S(=O)(=O)NCCC(NS(=O)(=O)c2ccc(C)cc2)C(=O)NO)cc1 (stereo not drawn) [Example 1, N-Hydroxy-2,4-bis-[[4-methylphenylsulfonyl]amino] butanamide] | 2.4 | 48 | 0.94
2 | Cc1ccc(S(=O)(=O)NCC[C@@H](NS(=O)(=O)c2ccc(C)cc2)C(=O)NO)cc1 [Example 2, (R)-N-Hydroxy-2,4-bis-[[4-methylphenylsulfonyl]amino] butanamide] | 3.2 | 43 | 1.3
3 | Cc1ccc(S(=O)(=O)NCC[C@H](NS(=O)(=O)c2ccc(C)cc2)C(=O)NO)cc1 [Example 3, (S)-N-Hydroxy-2,4-bis-[[4-methylphenylsulfonyl]amino] butanamide] | 48 | 840 | 35
4 | Cc1ccc(S(=O)(=O)NCC(NS(=O)(=O)c2ccc(C)cc2)C(=O)NO)cc1 (stereo not drawn) [Example 4, N-Hydroxy-2,3-bis-[[4-methylphenylsulfonyl]amino] propionamide] | 844 | 449 | 20
5 | O=C(NO)C(CCNS(=O)(=O)c1ccc(F)cc1)NS(=O)(=O)c1ccc(F)cc1 (stereo not drawn) [Example 5, N-Hydroxy-2,4-bis-[[4-fluorophenylsulfonyl]amino] butanamide] | 45 | 60 | 16
6 | O=C(NO)[C@H](CCNS(=O)(=O)c1ccccc1)NS(=O)(=O)c1ccccc1 [Example 6, (S)-N-Hydroxy-2,4-bis-[[phenylsulfonyl]amino] butanamide] | 2000 | 3000 | 284
7 | Cc1ccc(S(=O)(=O)NCCCC(NS(=O)(=O)c2ccc(C)cc2)C(=O)NO)cc1 (stereo not drawn) [Example 7, N-Hydroxy-2,5-bis-[[4-methylphenylsulfonyl]amino] valeramide] | 107 | 570 | 5.1
8 | COc1ccc(S(=O)(=O)NCCC(NS(=O)(=O)c2ccc(OC)cc2)C(=O)NO)cc1 (stereo not drawn) [Example 8, N-Hydroxy-2,4-bis-[[4-methoxyphenylsulfonyl]amino] butanamide] | 1.2 | 93 | 0.7
